Test results: US20080293802A1, “Chemical Compounds” (Smithline Beecham Corporation, priority 2005, published 2008)

Biological target: T1, Recombinant human IKKβ (IKK2) (Homo sapiens, UniProt O14920)
T1 construct: Recombinant human IKKβ (residues 1-737); GST (C); made in house
T1 sequence (O14920 1-737): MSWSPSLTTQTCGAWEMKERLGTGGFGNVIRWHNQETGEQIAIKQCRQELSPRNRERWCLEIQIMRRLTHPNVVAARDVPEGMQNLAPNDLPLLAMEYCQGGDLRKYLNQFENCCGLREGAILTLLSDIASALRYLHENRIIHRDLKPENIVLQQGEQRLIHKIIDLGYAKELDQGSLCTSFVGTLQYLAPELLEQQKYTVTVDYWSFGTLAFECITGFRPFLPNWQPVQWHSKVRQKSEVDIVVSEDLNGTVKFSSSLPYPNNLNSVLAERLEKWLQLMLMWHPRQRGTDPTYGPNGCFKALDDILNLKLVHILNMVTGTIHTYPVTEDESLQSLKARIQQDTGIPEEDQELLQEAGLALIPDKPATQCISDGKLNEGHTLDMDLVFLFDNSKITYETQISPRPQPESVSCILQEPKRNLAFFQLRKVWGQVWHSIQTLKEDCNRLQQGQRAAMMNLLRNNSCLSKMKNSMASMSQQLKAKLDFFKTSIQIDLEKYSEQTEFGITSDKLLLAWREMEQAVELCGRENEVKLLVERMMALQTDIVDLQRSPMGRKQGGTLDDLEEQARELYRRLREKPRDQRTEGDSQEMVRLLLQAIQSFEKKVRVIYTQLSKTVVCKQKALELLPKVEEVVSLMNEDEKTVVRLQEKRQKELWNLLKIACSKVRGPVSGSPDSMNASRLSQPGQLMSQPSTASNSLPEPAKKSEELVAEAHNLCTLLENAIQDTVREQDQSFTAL
Assay: IKK2 Assay (TR-FRET, phosphorylation of GST-IκBα)
Type: biochemical
Conditions: recombinant human IKKβ (residues 1-737), 5 nM; GST-IκBα 25 nM, ATP 1 μM; 30 minutes at room temperature; read-out: pIC50 against IKK2 (converted)
Protocol: Recombinant human IKKβ (residues 1-737) was expressed in baculovirus as a C-terminal GST-tagged fusion protein, and its activity was assessed using a time-resolved fluorescence resonance energy transfer (TR-FRET) assay. Briefly, IKK2 (5 nM final) diluted in assay buffer (50 mM HEPES, 10 mM MgCl2, 1 mM CHAPS pH 7.4 with 1 mM DTT and 0.01% w/v BSA) was added to wells containing various concentrations of compound or DMSO vehicle (3% final). The reaction was initiated by the addition of GST-IκBα substrate (25 nM final)/ATP (1 μM final), in a total volume of 30 μl. The reaction was incubated for 30 minutes at room temperature, then terminated by the addition of 15 μl of 50 mM EDTA. Detection reagent (15 μl) in buffer (100 mM HEPES pH 7.4, 150 mM NaCl and 0.1% w/v BSA) containing antiphosphoserine-IκBα-32/36 monoclonal antibody 12C2 (Cell Signalling Technology, Beverly Mass., USA) labelled with W-1024 europium chelate (Wallac OY, Turku, Finland), and an APC-labelled anti-GST antibody (Prozyme, San Leandro, Calif., USA) was added and the reaction was further incubated for 60 minutes at room temperature. The degree of phosphorylation of GST-IκBα was measured using a Packard Discovery plate reader (Perkin-Elmer Life Sciences, Pangbourne, UK) as a ratio of specific 665 nm energy transfer signal to reference europium 620 nm signal.

| SMILES | IC50 |
| --- | --- |
| Cc1cc2cc(-c3ccccc3)cc(C(N)=O)c2[nH]1 [Example 1, 2-methyl-5-phenyl-1H-indole-7-carboamide] | ≤ 10 µM |
| NC(=O)c1cc2cc(-c3ccccc3)cc(C(N)=O)c2[nH]1 [Example 2, 5-phenyl-1H-indole-2,7-dicarboxamide] | ≤ 10 µM |
